One data set addresses GST-BIR2 (XIAP fragment). As to the kind of experiment: fluorescence polarization binding of rhodamine-SMAC. The method, then: Assays were run in 50 mM Tris @ pH 7.2/100 mM NaCl/0.1% BSA.
A further data set has as its target full length XIAP (Homo sapiens, UniProt P98170). As to the kind of experiment: potency of IAP antagonists at restoring caspase-3 activity / SMAC competition assay (Table VIII). The note with it: for EC50: amount of compound necessary to restore caspase-3 activity to 50% of Vmax; for Relative Potency: fold relative to SMAC AVPI tetrapeptide.
In the next data set the test system is Jurkat leukemia cells. In words: Jurkat cell death (Annexin V / propidium iodide flow cytometry). It counts as cell-based. The note with it: for % nonviable cells: 20 hours; for cells killed: one day treatment. As to the method:
The following assay was used to test the ability of individual compounds from the TPI 1396 and TPI 1391 libraries to induce apoptosis of cultured tumor cell lines. Each of the compounds listed in Table IX was individually added to Jurkat leukemia cells (6.25×10^5 cells/mL) in RPMI containing 2.5% FBS at various concentrations for 20 hours. After incubation, cells were washed and stained with FITC-conjugated Annexin V antibody and propidium iodide (Biovision; Mountain View, Calif.). Cells were incubated for 20 minutes at room temperature in the dark and fluorescence was measured by flow cytometry (FACScan, Immunocytometry system; Becton-Dickinson; San Jose, Calif.). Cells staining positive for Annexin V were deemed non-viable.
(In general: In flow cytometry, cells or beads pass a laser one at a time.)

Data set [1] deals with normal bone marrow mononuclear cells. In words: normal bone marrow cell toxicity (Annexin V). The note with it: 5 μM, 20 hours. It counts as cell-based. The method, then:
After incubation, cells were washed, stained with FITC-conjugated Annexin V antibody and propidium iodide, and fluorescence measured by flow cytometry as described above.

The test system of data set [2] is PPC1 prostate cancer cells. In words: PPC1 tumor xenograft. The class given is in vivo, Balb/C nu-/nu- mice. The note with it: 30 mg/kg i.p. for 2 or 3 days. An excerpt:
Similar data was obtained using TPI 1396-22 (see FIG. 33a and 33b). […] In FIG. 33b, the mice were sacrificed at day 19 and the tumors excised and weighed.

Data set [3] concerns NCI panel of 60 tumor cell lines. As to the kind of experiment: NCI panel of 60 tumor cell lines, protein-based colorimetric assay. Set-up: species or system human. The note with it: 48 hours. The method, then:
Selected polyphenylurea compounds were tested on the National Cancer Institute (NCI) panel of 60 tumor cell lines (see FIG. 28a and FIG. 29).

In the next data set the target is T1, XIAP-inhibited caspase-3 (Homo sapiens, UniProt P98170).
T1 construct: in the derepression assay using full length XIAP; made in house; host or cells: bacteria
T1 sequence (P98170 whole entry): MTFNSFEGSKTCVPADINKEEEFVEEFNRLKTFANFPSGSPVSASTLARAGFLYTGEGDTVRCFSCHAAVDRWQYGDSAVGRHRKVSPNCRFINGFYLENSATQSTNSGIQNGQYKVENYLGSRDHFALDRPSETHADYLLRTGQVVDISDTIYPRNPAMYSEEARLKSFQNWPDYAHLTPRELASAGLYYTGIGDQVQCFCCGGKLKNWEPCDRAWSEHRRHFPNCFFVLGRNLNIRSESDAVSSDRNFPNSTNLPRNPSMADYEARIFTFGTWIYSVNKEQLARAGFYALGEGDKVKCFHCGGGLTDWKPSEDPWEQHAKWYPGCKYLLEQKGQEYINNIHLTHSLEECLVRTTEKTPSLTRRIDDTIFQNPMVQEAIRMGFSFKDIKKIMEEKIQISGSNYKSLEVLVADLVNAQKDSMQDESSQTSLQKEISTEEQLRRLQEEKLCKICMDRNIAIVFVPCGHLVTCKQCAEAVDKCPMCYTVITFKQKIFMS
In words: caspase derepression assay (XIAP-inhibited caspase-3, Ac-DEVD-AFC hydrolysis). The class given is biochemical. As to the method:
Caspase activity was assayed by release of 7-amino-4-trifluoromethyl-coumarin (AFC) from Ac-DEVD-AFC synthetic peptide using a Molecular Devices Spectromax 340 (see Zhou et al., J. Biol. Chem. 272:7797–7800 (1997)). […] The ratio of Vmax for hydrolysis of Ac-DEVD-AFC in the presence and absence of the candidate mixture was calculated and used to identify those that contain an agent that derepresses an IAP-inhibited caspase.
Screening of each mixture from the DCR390, TPI 1239 or TPI 1328 library, respectively, using the above described assay was carried out as follows. Each mixture was aliquoted in a 25 microliter volume and in duplicate to a well of a 96 well microtiter plate. […] Fluorescence of liberated AFC was immediately detected from each well for 30 minutes at 30 second intervals. The Vmax for hydrolysis of AC-DEVD-AFC from each well was measured using the softmax software package. Results of the screen for the DCR390 library are shown in Table I. Sets of mixtures having the same position fixed with different respective amino acids are arranged in 6 sections identified with the position number. […] The mixture in each section are arranged in descending order according to apparent velocity in the second column.
Briefly, recombinant proteins were produced in bacteria and purified as described, for example, in Deveraux et al., Nature 388:300–304(1997). […] Generation of fluorogenic AFC (7-amino-4-trifluoromethyl coumarin) product was measured with a spectrofluorometric plate reader in kinetic mode for 30 minutes at 37° C. using excitation and emission wavelengths of 405 nm and 510 nm, respectively. […] Control reactions lacked XIAP, and all assays were conducted in the linear range of substrate hydrolysis to avoid substrate depletion artifacts.

Data set [4] relates to ALVA31 prostate cancer cells. As to the kind of experiment: ALVA31 cell viability (XTT dye-reduction and trypan blue exclusion). The note with it: peptides 40 μM, VP-16 100 μM, 24 hrs. It counts as cell-based. The method, then:
The in vivo effects of TPI 792-33 or TPI 792-35, either individually or in combination with the cytotoxic anticancer drug VP-16 (etoposide), on derepression of XIAP-inhibited caspase and viability of ALVA31 cells was determined as follows. ALVA31 prostate cancer cells were seeded onto 96 well plates (10^4 cells/well) in 100 μL RPMI containing 2.5% fetal bovine serum (FBS). […] After another 24 hrs incubation, cell viability was measured by the XTT dye-reduction assay (Roche, Molecular Biochemicals; Indianapolis, Ind.) and trypan blue dye exclusion assay.
On the technique in general: Tetrazolium assays rely on reduction of a dye to a coloured formazan, in cell work by metabolically active cells.

Data set [5] deals with NCI panel of 60 tumor cell lines. The note with it: same assay, comparison drug; cited from earlier work.
Data set [6] relates to mouse embryo fibroblasts (MEFs). As to the kind of experiment: mechanism-based toxicity in MEFs from XIAP -/- and wild type mice (MTT). It counts as cell-based. The note with it: MEFs with or without SV40 large T antigen. The method, then: Cells were either tested directly at low passage (FIGS. 38A and C) or after transformation by infection with a retrovirus encoding SV40 large T antigen (FIGS. 38B and D). […] Cell viability was measured by MTT assay, expressing data as a percentage relative to control, untreated cells. Data shown in FIG. 38A–D represent mean±standard deviation of triplicate determinations.

A further data set concerns GST-XIAP BIR2. As to the kind of experiment: binding of XIAP-BIR2 to biotinylated peptides on Neutravidin plates. The note with it: biotinylated peptides adsorbed to Neutravidin-coated plates. From the text:
Bound GST polypeptides were detected with an anti-GST antibody.

Square brackets hold non-standard residues; d marks the D form. Ends that are not written are not given here. Peptide text beside a SMILES is read from it. * marks the point of attachment. 5TAMRA = CN(C)c1ccc2c(c1)Oc1cc(N(C)C)ccc1C21OC(=O)c2cc(C(=O)*)ccc21; Phe(4-Cl) = N[C@@H](Cc1ccc(Cl)cc1)C(=O)O; 2Nal = N[C@@H](Cc1ccc2ccccc2c1)C(=O)O; Fmoc = O=C(OCC1c2ccccc2-c2ccccc21)*; 2Thi = N[C@@H](Cc1cccs1)C(=O)O

Chain of full length XIAP (P98170 whole entry): as above
Chain of GST-XIAP BIR2 (P98170 124-240 limits assumed): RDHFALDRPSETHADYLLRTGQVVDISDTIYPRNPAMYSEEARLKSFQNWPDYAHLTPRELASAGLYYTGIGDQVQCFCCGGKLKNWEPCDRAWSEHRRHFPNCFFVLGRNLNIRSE

Regarding `CC[C@H](C)[C@H](NC(=O)[C@@H]1CCCN1C(=O)[C@@H](NC(=O)[C@H](C)N)C(C)C)C(=O)N[C@@H](C)C(=O)N[C@@H](CCC(N)=O)C(=O)N[C@@H](CCCCNC(=O)c1ccc2c(c1)C(=O)OC21c2ccc(N(C)C)cc2Oc2cc(N(C)C)ccc21)C(N)=O` [Rhodamine-SMAC] (H-AVPIAQK(5TAMRA)-NH2; N-terminus and C-terminus assumed), the Kd at GST-BIR2 (XIAP fragment) was found to be 20 µM.

The compound `CCCCCCCN1C(=O)C(=O)N(C(CCCC)CNCc2ccccc2)CC1Cc1ccc2ccccc2c1` (stereo not drawn) [TPI 1391-21] gave an EC50 on full length XIAP of 33.6 µM. For the same compound, the “Relative Potency” value on full length XIAP is given as 3.7. For the same compound, the “% nonviable cells” value in the data set on Jurkat leukemia cells (1 μM) amounted to 16%; with Jurkat leukemia cells (5 μM (first column headed 5)) it was 11%; in the data set with Jurkat leukemia cells (5 μM (second column headed 5)), 18%; in the data set on Jurkat leukemia cells (10 μM), 44%; in the data set on Jurkat leukemia cells (25 μM) it was 91%; in the data set with Jurkat leukemia cells (50 μM) it was 94%.

Turning to `CC(C)CC1CN(C(CNCc2ccccc2)Cc2ccc3ccccc3c2)C(=O)C(=O)N1CCc1cccc(C(F)(F)F)c1` (stereo not drawn) [TPI 1391-28], the EC50 on full length XIAP was 25.1 µM; in the data set on Jurkat leukemia cells (one-day exposure, 0 to 20 μM, read-out: EC50 for killing Jurkat leukemia cells), around 6.5 µM. In addition, the “Relative Potency” value on full length XIAP turned out to be 5. Further, the “% nonviable cells” value in the data set on Jurkat leukemia cells (1 μM) is recorded as 19%; with Jurkat leukemia cells (5 μM (first column headed 5)), 12%; in the data set on Jurkat leukemia cells (5 μM (second column headed 5)), 28%; in the data set on Jurkat leukemia cells (10 μM), 55%; in the data set on Jurkat leukemia cells (25 μM), 87%; in the data set on Jurkat leukemia cells (50 μM), 91%. For the same compound, the cells killed entry was “about 45%” in the data set on Jurkat leukemia cells (5 μM) and around 80% with Jurkat leukemia cells (8 μM). In data set [1], the “toxicity to normal bone marrow cells” value is “little toxicity”.

As for `COc1ccc(CCN2CCCC2CN(C(=O)Nc2ccccc2)C(CNC(=O)Nc2ccccc2)Cc2ccc3ccccc3c2)cc1` (stereo not drawn) [TPI 1396-22], in [2], the “tumor growth / tumor size” value is listed as “significantly slowed the rate of growth”. In addition, on full length XIAP, the EC50 turned out to be 45.3 µM and the “Relative Potency” value came to 2.8. In data set [3], the “average LD50 for the 60 cell lines” value came to 11 ± 2.6 µM and the “median LD50 for the 60 cell lines” value came to 22 µM. Besides, the “Activity (relative caspase-3 activity, ratio of Vmax with compound to Vmax of caspase-3 and XIAP controls)” value on XIAP-inhibited caspase-3 (Table X, R2 = L-Proline) turned out to be 3.3. For the same compound, the “activity in the derepression assay using full length XIAP” value on XIAP-inhibited caspase-3 (active / inactive) is listed as “active”.

Consider `COc1cc([C@@H]2c3cc4c(cc3[C@@H](O[C@@H]3O[C@@H]5CO[C@@H](C)O[C@H]5[C@H](O)[C@H]3O)[C@H]3COC(=O)[C@H]23)OCO4)cc(OC)c1O` [VP-16, etoposide], for which, in data set [4], the “effect on cell viability, agent alone” value was “essentially no effect”. Also, the “mean LD50 in the NCI panel of 60 tumor cell lines” value in data set [5] is 200 ± 2.5 µM.

For `COc1cccc2c1C(=O)c1c(O)c3c(c(O)c1C2=O)C[C@@](O)(C(C)=O)C[C@@H]3O[C@H]1C[C@H](N)[C@H](O)[C@H](C)O1` [daunorubicin], the “selectivity for transformed versus non-transformed cells” value in [6] was “do not display selectivity for transformed cells”.

With “TPI 1554-1: biotinylated TPI 1453-1 ([2Thi][2Nal][Phe(4-Cl)]K(Fmoc); also: biotinylated (site not given here))”, the “binding to XIAP-BIR2” value in the data set with GST-XIAP BIR2 is listed as “comparable to the binding of SMAC peptides”.

With “TPI 1554-2: biotinylated TPI 1453-6 ([2Thi][2Nal][dK](Fmoc)K(Fmoc); also: biotinylated (site not given here))”, the “binding to XIAP-BIR2” value in the data set on GST-XIAP BIR2 is recorded as “comparable to the binding of SMAC peptides”.

As a reminder, the Kd is the constant that tells how readily two partners part at equilibrium. Read a low Kd as a tighter complex. By EC50 is commonly meant the concentration needed to bring the measured effect to its halfway point.
